“And” between values parts separate entries of the source, which are not always exact repeats. Identical values can stand only once.

Consider 22 compounds from patent US20190345138A1, “HETEROCYCLIC AMIDES AS KINASE INHIBITORS” (GlaxoSmithKline Intellectual Property Development Limited, priority 2016, published 2019).

For one assay, the target named is T1, RIP1 kinase (Homo sapiens, UniProt Q13546).
T1 sequence (Q13546 1-375 limits assumed): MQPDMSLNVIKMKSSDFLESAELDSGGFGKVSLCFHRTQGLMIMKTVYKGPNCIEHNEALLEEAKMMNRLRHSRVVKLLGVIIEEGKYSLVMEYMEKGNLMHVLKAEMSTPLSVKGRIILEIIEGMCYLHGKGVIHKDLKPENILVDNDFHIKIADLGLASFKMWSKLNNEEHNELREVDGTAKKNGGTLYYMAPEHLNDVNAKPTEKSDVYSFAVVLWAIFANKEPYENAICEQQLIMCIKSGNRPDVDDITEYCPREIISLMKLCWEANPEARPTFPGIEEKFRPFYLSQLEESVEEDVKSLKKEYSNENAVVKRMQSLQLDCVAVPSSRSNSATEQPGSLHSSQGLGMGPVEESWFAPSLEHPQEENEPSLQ
The assay can be described thus: fluorescent polarization based binding assay. The note with it: mean of a minimum of 2 experiments. An excerpt:
A fluorescent polarization based binding assay was used to assess the activity of the compounds of this invention, the details of which are disclosed in International Patent Appln. No. PCT/IB2014/059004, now, International Patent Appln. Pub.

The subject of assay [1] is human monocytic leukemia U937 cells. The assay can be described thus: necroptosis assay in U937 cells. Type of assay: cell-based. As to conditions: Homo sapiens, U-937, U937 cells; viability by cellular ATP (Cell Titer-Glo); read-out: pIC50, inhibited necrosis in U937 cells (converted). As to the method:
The efficacy of RIP1 inhibitors can be tested […] in vitro using a human monocytic leukemia U937 or mouse L929 fibrosarcoma cells in a necroptosis assay. As determined using the method described in S. He et al., Cell, 137(6):1100-1111 (2009) and International Patent Appln. No. PCT/IB2014/059004, now, International Patent Appln. Pub.
Viability was measured by quantitating cellular levels of ATP using the Cell Titer-Glo kit. All data are means±standard deviation of the mean.
Background: ATP-based viability assays read luminescence as a measure of living cells.

Consider `N#Cc1csc(N2CCC(C(=O)N3N=CC[C@H]3c3ccccc3)CC2)n1` [Example 53, (S)-2-(4-(5-phenyl-4,5-dihydro-1H-pyrazole-1-carbonyl)piperidin-1-yl)thiazole-4-carbonitrile], for which the IC50 at RIP1 kinase was 1 to 31.6 nM and 1 to 10 nM; in assay [1], 1 to 100 nM.
Turning to `N#Cc1cccc([C@@H]2CC=NN2C(=O)C2CCN(c3cc(C(N)=O)ncn3)CC2)c1` [Example 70, (S)-6-(4-(5-(3-cyanophenyl)-4,5-dihydro-1H-pyrazole-1-carbonyl)piperidin-1-yl)pyrimidine-4-carboxamide], the IC50 at RIP1 kinase is 1 to 31.6 nM; in assay [1], 1 to 100 nM.
For the compound `COc1cnc(N2CCC(C(=O)N3N=CC[C@H]3c3cc(F)ccc3F)CC2)nc1` [Example 101, (S)-(5-(2,5-difluorophenyl)-4,5-dihydro-1H-pyrazol-1-yl)(1-(5-methoxypyrimidin-2-yl)piperidin-4-yl)methanone], the IC50 was 1 to 31.6 nM and 1 to 10 nM on RIP1 kinase; 1 to 100 nM in assay [1].
As to `NC(=O)c1nc(N2CCC(C(=O)N3N=CC[C@H]3c3cncc(F)c3)CC2)ncc1F` [Example 161, (S)-5-fluoro-2-(4-(5-(5-fluoropyridin-3-yl)-4,5-dihydro-1H-pyrazole-1-carbonyl)piperidin-1-yl)pyrimidine-4-carboxamide], the IC50 at RIP1 kinase was 1 to 31.6 nM; in assay [1], 1 to 100 nM.
Take `O=C(C1CCN(c2ncc(F)c(OCCN3CCOCC3)n2)CC1)N1N=CC[C@H]1c1ccccc1` [Example 127, (S)-(1-(5-fluoro-4-(2-morpholinoethoxy)pyrimidin-2-yl)piperidin-4-yl)(5-phenyl-4,5-dihydro-1H-pyrazol-1-yl)methanone]: the IC50 at RIP1 kinase was 1 to 31.6 nM and 1 to 10 nM; in assay [1] it was 1 to 100 nM.
Consider `NC(=O)c1cnc(N2CCC(C(=O)N3N=CC[C@H]3c3cc(F)cc(F)c3)CC2)nc1` [Example 96, (S)-2-(4-(5-(3,5-difluorophenyl)-4,5-dihydro-1H-pyrazole-1-carbonyl)piperidin-1-yl)pyrimidine-5-carboxamide], for which the IC50 on RIP1 kinase is 1 to 31.6 nM; in assay [1] it was 1 to 100 nM.
As to `COc1ccc(N2CCC(C(=O)N3N=CC[C@H]3c3ccccc3)CC2)nn1` [Example 49, (S)-(1-(6-methoxypyridazin-3-yl)piperidin-4-yl)(5-phenyl-4,5-dihydro-1H-pyrazol-1-yl)methanone], the values for the IC50 (on RIP1 kinase; in assay [1]) were 1 to 31.6 nM and 1 to 100 nM, respectively.
In the case of `O=C(C1CCN(c2nccc(=O)[nH]2)CC1)N1N=CC[C@H]1c1cc(F)cc(F)c1` [Example 97, (S)-2-(4-(5-(3,5-difluorophenyl)-4,5-dihydro-1H-pyrazole-1-carbonyl)piperidin-1-yl)pyrimidin-4(3H)-one], the IC50 was 1 to 31.6 nM at RIP1 kinase and 1 to 100 nM in assay [1].
For `O=C(C1CCN(c2ncc3[nH]cnc3n2)CC1)N1N=CC[C@H]1c1ccccc1` [Example 9, (S)-(1-(7H-purin-2-yl)piperidin-4-yl)(5-phenyl-4,5-dihydro-1H-pyrazol-1-yl)methanone], the values for the IC50 (at RIP1 kinase; in assay [1]) were 1 to 31.6 nM and 1 to 100 nM, respectively.
For `O=C(C1CCN(c2ncc(O)cn2)CC1)N1N=CC[C@H]1c1ccccc1` [Example 128, (S)-(1-(5-hydroxypyrimidin-2-yl)piperidin-4-yl)(5-phenyl-4,5-dihydro-1H-pyrazol-1-yl)methanone], in that order: 1 to 31.6 nM and 1 to 100 nM.
With `O=C(O)c1ncnc(N2CCC(C(=O)N3N=CC[C@H]3c3cc(F)cc(F)c3)CC2)c1F` [Example 164, (S)-6-(4-(5-(3,5-difluorophenyl)-4,5-dihydro-1H-pyrazole-1-carbonyl)piperidin-1-yl)-5-fluoropyrimidine-4-carboxylic acid], the figures for the IC50 (on RIP1 kinase; in assay [1]) were 1 to 31.6 nM and 1 to 100 nM, respectively.
With `CSc1nccc(N2CCC(C(=O)N3N=CC[C@H]3c3ccccc3)CC2)n1` [Example 45, (S)-(1-(2-(methylthio)pyrimidin-4-yl)piperidin-4-yl)(5-phenyl-4,5-dihydro-1H-pyrazol-1-yl)methanone], the IC50 at RIP1 kinase is 1 to 31.6 nM and 1 to 10 nM; in assay [1], 1 to 100 nM.
For `COc1cc(N2CCC(C(=O)N3N=CC[C@H]3c3cc(F)ccc3F)CC2)ncn1` [Example 105, (S)-(5-(2,5-difluorophenyl)-4,5-dihydro-1H-pyrazol-1-yl)(1-(6-methoxypyrimidin-4-yl)piperidin-4-yl)methanone], the IC50 on RIP1 kinase is 1 to 31.6 nM and 1 to 10 nM; in assay [1], 1 to 100 nM.
With `CCOC(=O)c1coc(N2CCC(C(=O)N3N=CC[C@H]3c3cc(F)cc(F)c3)CC2)n1` [Example 106, (S)-ethyl 2-(4-(5-(3,5-difluorophenyl)-4,5-dihydro-1H-pyrazole-1-carbonyl)piperidin-1-yl)oxazole-4-carboxylate], the IC50 is 1 to 31.6 nM and 1 to 10 nM on RIP1 kinase; 1 to 100 nM in assay [1].
For the compound `COc1cc(N2CCC(C(=O)N3N=CC[C@H]3c3ccccc3)CC2)ncn1` [Example 12, (S)-(1-(6-methoxypyrimidin-4-yl)piperidin-4-yl)(5-phenyl-4,5-dihydro-1H-pyrazol-1-yl)methanone], the IC50 on RIP1 kinase is 1 to 31.6 nM and 1 to 10 nM; in assay [1], 1 to 100 nM.
With `N#Cc1nccc(N2CCC(C(=O)N3N=CC[C@H]3c3cncc(F)c3)CC2)n1` [Example 115, (S)-4-(4-(5-(5-fluoropyridin-3-yl)-4,5-dihydro-1H-pyrazole-1-carbonyl)piperidin-1-yl)pyrimidine-2-carbonitrile], the figures for the IC50 (on RIP1 kinase; in assay [1]) were 1 to 31.6 nM and 1 to 100 nM, respectively.
For `N#Cc1cccc([C@@H]2CC=NN2C(=O)C2CCN(c3ccc4nccn4n3)CC2)c1` [Example 73, (S)-3-(1-(1-(imidazo[1,2-b]pyridazin-6-yl)piperidine-4-carbonyl)-4,5-dihydro-1H-pyrazol-5-yl)benzonitrile], in that order: 1 to 31.6 nM and 1 to 100 nM.
For `CNC(=O)c1csc(N2CCC(C(=O)N3N=CC[C@H]3c3ccccc3)CC2)n1` [Example 54, (S)-N-methyl-2-(4-(5-phenyl-4,5-dihydro-1H-pyrazole-1-carbonyl)piperidin-1-yl)thiazole-4-carboxamide], in that order: 1 to 31.6 nM and 1 to 100 nM.
`Nc1ncnc(N2CCC(C(=O)N3N=CC[C@H]3c3ccccc3)CC2)c1F` [Example 61, (S)-(1-(6-amino-5-fluoropyrimidin-4-yl)piperidin-4-yl)(5-phenyl-4,5-dihydro-1H-pyrazol-1-yl)methanone]: the IC50 was 1 to 31.6 nM and 1 to 10 nM on RIP1 kinase; 1 to 100 nM in assay [1].
Regarding `O=C(C1CCN(c2cnc3ccccc3n2)CC1)N1N=CC[C@H]1c1ccccc1` [Example 39, (S)-(5-phenyl-4,5-dihydro-1H-pyrazol-1-yl)(1-(quinoxalin-2-yl)piperidin-4-yl)methanone], the IC50 at RIP1 kinase is 1 to 31.6 nM and 1 to 10 nM; in assay [1] it was 1 to 100 nM.
For the compound `COc1cc(N2CCC(C(=O)N3N=CC[C@H]3c3cc(F)cc(F)c3)CC2)ncn1` [Example 91, (S)-(5-(3,5-difluorophenyl)-4,5-dihydro-1H-pyrazol-1-yl)(1-(6-methoxypyrimidin-4-yl)piperidin-4-yl)methanone], the IC50 was 1 to 31.6 nM and 1 to 10 nM on RIP1 kinase; 1 to 100 nM in assay [1].
For the compound `NC(=O)c1csc(N2CCC(C(=O)N3N=CC[C@H]3c3ccccc3)CC2)n1` [Example 56, (S)-2-(4-(5-phenyl-4,5-dihydro-1H-pyrazole-1-carbonyl)piperidin-1-yl)thiazole-4-carboxamide], the IC50 on RIP1 kinase is 1 to 31.6 nM; in assay [1], 1 to 100 nM.
